According to US20250346600A1, “TRICYCLIC DERIVATIVES AND RELATED USES” (MOMA Therapeutics, Inc., priority 2023, published 2025):
Where two headings read alike, the source gives them in different places.

What was measured:
[1] = target: T1, Full length WRN protein (aa 2-1432) (Homo sapiens (Human), UniProt Q14191); experiment: WRN ATPase ADP-Glo biochemical assay, Assay Format A (10 μM ATP); settings: 0.25 nM WRN, 100 nM C6.18 ssDNA, 30 min preincubation, read-out: ATPase ADPGlo AC50 (uM)- Assay Format A
T1 sequence (Q14191 2-1432): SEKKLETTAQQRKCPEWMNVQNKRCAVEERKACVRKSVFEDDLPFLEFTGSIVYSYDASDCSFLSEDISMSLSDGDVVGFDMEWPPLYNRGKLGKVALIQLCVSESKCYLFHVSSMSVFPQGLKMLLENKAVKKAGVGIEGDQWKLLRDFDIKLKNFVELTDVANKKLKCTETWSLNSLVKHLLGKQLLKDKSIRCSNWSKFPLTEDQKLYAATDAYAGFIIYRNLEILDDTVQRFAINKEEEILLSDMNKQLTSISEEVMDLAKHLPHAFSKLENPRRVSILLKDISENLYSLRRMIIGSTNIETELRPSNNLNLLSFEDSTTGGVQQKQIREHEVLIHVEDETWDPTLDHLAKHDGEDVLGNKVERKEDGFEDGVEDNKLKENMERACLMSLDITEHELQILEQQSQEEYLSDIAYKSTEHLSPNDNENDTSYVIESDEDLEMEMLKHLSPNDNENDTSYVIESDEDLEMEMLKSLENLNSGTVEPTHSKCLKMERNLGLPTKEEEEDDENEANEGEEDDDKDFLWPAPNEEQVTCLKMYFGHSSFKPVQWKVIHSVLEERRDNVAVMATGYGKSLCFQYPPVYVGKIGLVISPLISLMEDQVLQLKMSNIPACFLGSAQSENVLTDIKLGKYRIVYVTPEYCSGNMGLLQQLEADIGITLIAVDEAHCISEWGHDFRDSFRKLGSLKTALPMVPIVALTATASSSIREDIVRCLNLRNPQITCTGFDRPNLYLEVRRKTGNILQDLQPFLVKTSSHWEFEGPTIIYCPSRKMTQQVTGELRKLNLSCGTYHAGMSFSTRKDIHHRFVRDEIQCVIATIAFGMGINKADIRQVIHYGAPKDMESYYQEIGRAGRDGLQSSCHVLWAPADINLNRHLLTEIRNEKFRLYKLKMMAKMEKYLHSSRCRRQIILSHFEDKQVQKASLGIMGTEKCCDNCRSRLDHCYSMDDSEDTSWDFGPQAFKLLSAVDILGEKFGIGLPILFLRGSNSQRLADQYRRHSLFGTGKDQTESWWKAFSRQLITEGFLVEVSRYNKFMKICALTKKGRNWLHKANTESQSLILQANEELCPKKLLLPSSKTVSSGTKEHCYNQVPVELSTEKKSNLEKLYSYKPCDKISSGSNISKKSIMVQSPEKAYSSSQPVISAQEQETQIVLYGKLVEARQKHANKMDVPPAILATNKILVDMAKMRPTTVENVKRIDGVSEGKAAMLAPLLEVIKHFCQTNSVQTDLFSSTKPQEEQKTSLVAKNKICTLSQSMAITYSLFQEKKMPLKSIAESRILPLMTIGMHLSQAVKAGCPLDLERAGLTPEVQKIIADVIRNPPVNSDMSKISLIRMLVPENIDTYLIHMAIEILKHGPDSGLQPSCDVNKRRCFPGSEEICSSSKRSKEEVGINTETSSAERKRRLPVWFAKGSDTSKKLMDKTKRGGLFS
In short: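 ADP-Glo luminescence measured hydrolysis of ATP by purified, baculovirus-expressed N-terminally tagged full-length WRN. Enzyme (0.5 nM) was preincubated 30 min with compound, then 200 nM ssDNA C6.18 plus 20 μM ATP were added (pre-mix levels) for 30 min at RT. IC50s come from four-parameter fits, geometric mean of at least two trials.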

HCT116 cells = experiment: HCT116 (MSI) 7 day viability, CellTiter Glo; type: cell-based; settings: 7 days, read-out: HCT116 (MSI) Viability 7 Day Abs AC50
In short: (§1)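 10 mM DMSO stocks serially diluted 3-fold, 10 steps; cells added (HCT116 50/well, HT29 500/well); 7 d, 37 °C, 5% CO2; CellTiter Glo 20 min RT; luminescence.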

[2] = target: T1, Full length WRN protein (aa 2-1432); experiment: WRN ATPase ADP-Glo biochemical assay, Assay Format B (100 μM ATP); settings: 0.25 nM WRN, 100 nM C6.18 ssDNA, 60 min preincubation, read-out: ATPase ADPGlo AC50 (uM)- Assay Format B
HT29 cells = experiment: HT29 (MSS) 7 day viability, CellTiter Glo; type: cell-based; settings: 7 days, read-out: HT29 (MSS) Viability 7 Day CTGAbs AC50
In short: as §1

| AC50 [1] | AC50 [2] | SMILES | AC50 (HCT116 cells; Homo sapiens, HCT-116, 168 h) | AC50 (HT29 cells; Homo sapiens, HT-29, 168 h) | AC50 (HCT116 cells) | AC50 (HT29 cells) |
| --- | --- | --- | --- | --- | --- | --- |
| < 0.0015 µM | 0.0015 to 0.005 µM | C=CC(=O)N1CCc2nn(-c3ccc(C4CCC4)cc3O)c3c2C(C1)N(C(=O)c1ccc(Br)c2[nH]cnc12)CC3 (centres unmarked) [Compound 23, 1-(5-(7-bromo-1H-benzo[d]imidazole-4-carbonyl)-2-(4-cyclobutyl-2-hydroxyphenyl)-2,3,4,5,5a,6,8,9-octahydro-7H-1,2,5,7-tetraazabenzo[cd]azulen-7-yl)prop-2-en-1-one] | 0.001 to 0.1 µM | > 3 µM | – | – |
| 0.0015 to 0.005 µM | 0.005 to 0.015 µM | C=CC(=O)N1CCc2nn(-c3ccc(C4CC4)cc3OC(F)F)c3c2C(C1)N(C(=O)c1cnc(C(F)(F)F)cc1N)CC3 (centres unmarked) [Compound 252, 1-(5-(4-amino-6-(trifluoromethyl)nicotinoyl)-2-(4-cyclopropyl-2-(difluoromethoxy)phenyl)-2,3,4,5,5a,6,8,9-octahydro-7H-1,2,5,7-tetraazabenzo[cd]azulen-7-yl)prop-2-en-1-one] | 0.001 to 0.1 µM | > 3 µM | – | – |
| 0.0015 to 0.005 µM | 0.015 to 0.055 µM | C=CC(=O)N1CCc2nn(-c3ccc(C(C)C)cc3)c3c2C(C1)N(C(=O)c1cnc(C(F)(F)F)c(O)c1)CC3 (centres unmarked) [Compound 14, 1-(5-(5-hydroxy-6-(trifluoromethyl)nicotinoyl)-2-(4-isopropylphenyl)-2,3,4,5,5a,6,8,9-octahydro-7H-1,2,5,7-tetraazabenzo[cd]azulen-7-yl)prop-2-en-1-one] | 0.001 to 0.1 µM | > 3 µM | – | – |

More lines, now with the values behind:

| SMILES | AC50 [1] | AC50 [2] | AC50 (HCT116 cells; Homo sapiens, HCT-116, 168 h) | AC50 (HT29 cells; Homo sapiens, HT-29, 168 h) | AC50 (HCT116 cells) | AC50 (HT29 cells) |
| --- | --- | --- | --- | --- | --- | --- |
| C=CC(=O)N1CCc2nn(-c3ccc(C4CCC4)cc3Cl)c3c2C(C1)N(C(=O)c1cnc(C(F)(F)F)cc1N)CC3 (centres unmarked) [Compound 241, 1-(5-(4-amino-6-(trifluoromethyl)nicotinoyl)-2-(2-chloro-4-cyclobutylphenyl)-2,3,4,5,5a,6,8,9-octahydro-7H-1,2,5,7-tetraazabenzo[cd]azulen-7-yl)prop-2-en-1-one] | < 0.0015 µM | 0.005 to 0.015 µM | 0.001 to 0.1 µM | > 3 µM | – | – |
| C=CC(=O)N1CCc2nn(-c3ccc(C4CCC4)cc3O)c3c2C(C1)N(C(=O)c1ccc(C(F)(F)F)c2ncncc12)CC3 (centres unmarked) [Compound 242, 1-(2-(4-cyclobutyl-2-hydroxyphenyl)-5-(8-(trifluoromethyl)quinazoline-5-carbonyl)-2,3,4,5,5a,6,8,9-octahydro-7H-1,2,5,7-tetraazabenzo[cd]azulen-7-yl)prop-2-en-1-one] | 0.0015 to 0.005 µM | 0.015 to 0.055 µM | 0.001 to 0.1 µM | > 3 µM | – | – |
| C=CC(=O)N1CC(OC2CC(C#N)C2)c2nn(-c3ccc(C4CCC4)cc3)c3c2C(C1)N(C(=O)c1cnc(C(F)(F)F)cc1N)CC3 (centres unmarked) [Compound 198, 3-((7-acryloyl-5-(4-amino-6-(trifluoromethyl)nicotinoyl)-2-(4-cyclobutylphenyl)-3,4,5,5a,6,7,8,9-octahydro-2H-1,2,5,7-tetraazabenzo[cd]azulen-9-yl)oxy)cyclobutane-1-carbonitrile] | < 0.0015 µM | 0.005 to 0.015 µM | 0.001 to 0.1 µM | > 3 µM | – | – |
| C=CC(=O)N1CC(C)c2nn(-c3ccc(C(C)C)cc3O)c3c2C(C1)N(C(=O)c1ccc(Br)c2[nH]cnc12)CC3 (centres unmarked) [Compound 32, 1-(5-(7-bromo-1H-benzo[d]imidazole-4-carbonyl)-2-(2-hydroxy-4-isopropylphenyl)-9-methyl-2,3,4,5,5a,6,8,9-octahydro-7H-1,2,5,7-tetraazabenzo[cd]azulen-7-yl)prop-2-en-1-one] | < 0.0015 µM | 0.005 to 0.015 µM | – | – | 0.001 to 0.1 µM | > 3 µM |
| C=CC(=O)N1CCc2nn(-c3ccc(C45CC(C4)C5)c(F)c3O)c3c2C(C1)N(C(=O)c1cnc(C(F)(F)F)c(O)c1)CC3 (centres unmarked) [Compound 101, 1-(2-(4-(bicyclo[1.1.1]pentan-1-yl)-3-fluoro-2-hydroxyphenyl)-5-(5-hydroxy-6-(trifluoromethyl)nicotinoyl)-2,3,4,5,5a,6,8,9-octahydro-7H-1,2,5,7-tetraazabenzo[cd]azulen-7-yl)prop-2-en-1-one] | 0.0015 to 0.005 µM | 0.015 to 0.055 µM | 0.1 to 0.25 µM | > 3 µM | – | – |
